Measurements published in patent publication US11026918B2, “Method of preventing or treating a pulmonary disease or condition” (THE BOARD OF TRUSTEES OF THE UNIVERSITY OF ILLINOIS, priority 2014, dated 2021).
“Also recorded” adds a separate entry of the source.

Tests used:
[1] = molecular target: sphingosine kinase-1/SphK1 (Homo sapiens, UniProt Q9NYA1); conditions: cited from earlier work
irradiated C57B1/6 mice = conditions: 20 Gy thoracic irradiation, cited from earlier work
[2] = test system: bleomycin-challenged C57BL/6J mice; experiment: Bleomycin-induced pulmonary fibrosis in mice treated with PF-543; type: in vivo; conditions: PF-543 i.p. 5 mg/kg twice per week
Method: In Vivo Studies. In this analysis, 8 week-old, wild-type, C57BL/6J mice were treated with 1.5 U/kg bleomycin.

human lung fibroblasts [3] = experiment: TGF-β-mediated differentiation of human lung fibroblasts, PF-543; type: cell-based
From the text: TGF-β-induced fibroblast differentiation was characterized to analyze the expression of fibronectin and α-SMA. […] Additionally, compared with the control mouse lung fibroblast (from wild-type mice), TGF-β-induced fibroblast differentiation and expression of YAP1 were dramatically lower in the lung fibroblast isolated from SphK1^−/− mice. Accordingly, selective inhibition of SphK1 is useful in the prevention and treatment of bleomycin-induced pulmonary fibrosis.

[4] = test system: adult mice exposed to oxygen (75%); experiment: Hyperoxia-induced lung injury in adult mice; type: in vivo; conditions: 5 mg/kg/d PF-543 x 2 days prior to oxygen (75%)
[5] = test system: newborn mice exposed to hyperoxia (75%); experiment: Hyperoxia-induced lung injury in newborn mice; type: in vivo; conditions: PF-543 20 mg/kg/day
From the text: Therefore, PF-543 protected the lungs of the newborn mice from oxygen injury.

HLMVECs = experiment: Hyperoxia-induced S1P generation, p47phox activation and ROS generation in HLMVECs, PF-543; type: cell-based, human
From the text: HLMVECs were transfected with p47-roGFP prior to exposure to hyperoxia.

S1P receptors = conditions: cited from earlier work
[6] = cited from earlier work
rats exposed to hypoxia = conditions: SKI-II 10 mg/kg intraperitoneally, once every other day for 3.5 weeks; vs vehicle; cited from earlier work
[7] = test system: human lung microvascular endothelial cells (HLMVECs); conditions: SKI-II, cited from earlier work
[8] = test system: bleomycin-challenged mice; conditions: SKI-II eight days post-bleomycin challenge; cited from earlier work
human lung fibroblasts [9] = conditions: SKI-II; cited from earlier work
[10] = 0.375 mg/kg myriocin p.o. 3x/week, 0.375 mg/kg
[11] = PF-543 1-5 μM, 1 hour pretreatment, TGF-β 5 ng/ml, 48 hours

Sequence of sphingosine kinase-1/SphK1 (Q9NYA1 whole entry): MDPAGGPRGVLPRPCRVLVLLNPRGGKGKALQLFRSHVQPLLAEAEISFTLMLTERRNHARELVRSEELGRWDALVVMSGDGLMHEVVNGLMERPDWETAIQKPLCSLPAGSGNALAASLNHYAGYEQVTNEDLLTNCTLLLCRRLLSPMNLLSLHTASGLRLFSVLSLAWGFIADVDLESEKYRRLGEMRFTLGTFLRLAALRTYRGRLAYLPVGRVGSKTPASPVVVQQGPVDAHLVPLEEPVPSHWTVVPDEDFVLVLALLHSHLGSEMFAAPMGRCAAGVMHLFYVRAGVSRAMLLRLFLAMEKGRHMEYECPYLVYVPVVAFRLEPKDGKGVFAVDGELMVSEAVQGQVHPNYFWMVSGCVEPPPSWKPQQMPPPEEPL

With `N=C(N)C1(C(=O)NCCCCCCCCCCOCC2CCCCC2)CC1` [Compound 4] as the molecule, how does the “selectivity for SphK1 over SphK2” value [1] read?
Its value is 470 fold.

With `CCCCCCCCCCCCc1ccc(NC(=O)C2(C(=N)N)CC2)cc1` [Compound 2] as the molecule, how does the Ki [1] read?
Its Ki is 0.3 µM.

And the “selectivity for SphK1 over SphK2” value [1]?
Its value is 40 fold.

With `N=C(N)[C@@H]1CCCN1C(=O)c1ccc(-c2nc(-c3cccc(CCC4CCCCC4)c3)co2)cc1` [Compound 5] as the molecule, how does the “selectivity for SphK1 over SphK2” value [1] read?
Its value is 180 fold.

Which “radiation-induced pulmonary fibrosis (onset of RIF)” value (irradiated C57B1/6 mice; [10]) does the source give for `CCCCCCC(=O)CCCCCC/C=C/C[C@@H](O)[C@H](O)[C@@](N)(CO)C(=O)O` [myriocin] here?
Its value is “decreases; also recorded: delays”.

What about the radiation-induced pulmonary inflammation (irradiated C57B1/6 mice; [10]) of the same molecule?
Its radiation-induced pulmonary inflammation is “decreases; also recorded: reduces”.

And the “animal lifespan (survival)” value (irradiated C57B1/6 mice; 0.375 mg/kg myriocin p.o. 3x/week)?
The value was “increased”.

And the “SphK2 mRNA levels and protein expression” value (irradiated C57B1/6 mice; myriocin)?
The value was “Neither parameter is affected”.

What about the “expression of markers of fibrogenesis (collagen, α-SMA) in the lung” value (irradiated C57B1/6 mice; myriocin) of the same molecule?
Its value is “decreased”.

And the “radiation-increased SphK1 mRNA levels and SphK1 protein expression” value (irradiated C57B1/6 mice; myriocin)?
The value was “decreased”.

What about the “radiation-induced increase in total SphK activity in lung tissue” value (irradiated C57B1/6 mice; myriocin) of the same molecule?
The value was “hinder; also recorded: inhibition”.

What does the source list for `Cc1cc(CS(=O)(=O)c2ccccc2)cc(OCc2ccc(CN3CCC[C@@H]3CO)cc2)c1` [PF-543, [(2R)-1-[[4-[[3-(benzenesulfonylmethyl)-5-methylphenoxy]methyl]phenyl]methyl]pyrrolidin-2-yl] methanol]?
protection against lung injury and pulmonary fibrosis ([2]; 1.5 U/kg bleomycin, day 7 to 21 post-bleomycin, 5 mg/kg): ameliorates; also recorded: partly protected; TGF-β levels in bronchoalveolar lavage (BAL) fluids ([2]; day 7 to 21 post-bleomycin): decreased; expression of α-SMA and fibronectin in lung tissues ([2]; day 7 to 21 post-bleomycin): decreased; total collagen deposition ([2]; day 7 to 21 post-bleomycin, vs bleomycin without PF-543): decreased; Ashcroft's score ([2]; day 21 to 42 post-bleomycin): decrease; collagen deposition ([2]; day 21 to 42 post-bleomycin): decrease; resolution of pulmonary fibrosis ([2]; day 21 to 42 post-bleomycin): enhanced resolution; TGF-β-induced expression of fibronectin and α-SMA (human lung fibroblasts [3]; [11]): decreased; also recorded: dramatically inhibited; TGF-β-mediated fibroblast differentiation to myofibroblasts (human lung fibroblasts [3]; [11]): attenuated; also recorded: dramatically inhibited; TGF-β-induced expression of YAP1 (human lung fibroblasts [3]; PF-543 pretreatment, TGF-β): attenuated; also recorded: dramatically inhibited; BAL fluid total protein concentration [4]: decreases; also recorded: reduced; BAL inflammatory cell infiltrate (WBC count) [4]: decreases; also recorded: reduced; hyperoxia-induced lung injury [4]: attenuated; lung inflammatory fluid infiltration (lung histology) [4]: reduced; lung structure [5]: well preserved; attenuation of hyperoxia-mediated [32P]S1P generation (HLMVECs): > 80%; hyperoxia-induced ROS generation (HLMVECs): attenuates; also recorded: inhibited; exogenous S1P-mediated translocation of p47phox to cell periphery / activation (HLMVECs; exogenous S1P instead of hyperoxia): not affected; also recorded: did not affect; hyperoxia-induced aggregation and stimulation of p47phox biosensor protein (p47-roGFP) (HLMVECs; live cell imaging, HLMVECs transfected with p47-roGFP): suppressed; hyperoxia-induced p47phox translocation to cell periphery / activation of p47phox (HLMVECs; pre-treated with PF-543): inhibited; also recorded: attenuated; affinity toward S1P receptors (S1P receptors): does not exhibit any affinity; cell permeability [6]: cell-permeable

Which IC50 [1] does the source give for `CCCCCCCCCCCCCC#CC(=O)C1COC(C)(C)N1C(=O)OC(C)(C)C` (stereo not shown) [SKI 5C] here?
The IC50 was 3.3 µM.

With `CCCCCCCCCCCCc1ccc(C(=O)NC2(C(=N)N)CC2)cc1` [Compound 1] as the molecule, how does the “selectivity for SphK1 over SphK2” value [1] read?
The value was 5 fold.

For `Oc1ccc(Nc2nc(-c3ccc(Cl)cc3)cs2)cc1` [SKI-II, 4-[[4-(4-chlorophenyl)-2-thiazolyl]amino]-phenol], which “development of HPH (RVSP, RVH, pulmonary vascular remodeling)” value (rats exposed to hypoxia) is on record?
The value was “prevents”.

And the “ROS production under hyperoxia (DCFDA fluorescence)” value ([7]; 24 hours before hyperoxia (95% O2) for 3 hours)?
Its value is “blocked”.

What about the “hyperoxia-induced S1P generation” value [7] of the same molecule?
The value was “attenuates”.

What about the bleomycin-induced mortality [8] of the same molecule?
The bleomycin-induced mortality was “reduces”.

What about the bleomycin-induced pulmonary fibrosis [8] of the same molecule?
Its bleomycin-induced pulmonary fibrosis is “reduces”.

What about the “S1P generation and TGF-β-mediated signal transduction” value (human lung fibroblasts [9]) of the same molecule?
Its value is “attenuates”.

What does the source list for `CCCCCCCCCCCCCCC[C@@H](O)C(C)N` (stereo partly shown) [Compound 55-21]?
IC50 [1]: 7.1 µM; selectivity for SphK1 over SphK2 [1]: ~108 fold
